Experimental data reported in US20140107049A1, “MANNOSE DERIVATIVES FOR TREATING BACTERIAL INFECTIONS” (priority 2012, published 2014).

biological target: FimH-CRD (Escherichia coli, UniProt P08191); test: Competitive binding assay (fluorescence polarization, Alexa647 mannoside probe)
Protocol: The following competitive binding assay is performed: Round bottom, low volume 384-well microtiter plates are filled with 20 μl/well of a binding solution of FimH-CRD in 50 mM Tris, pH 7.0, 100 mM NaCl, 1 mM EDTA, 5 mM beta mercaptoethanol, 0.05% BSA, 5 nM of the Alexa647 mannoside probe and 60 nM of the FimH-CRD. Control wells using the same conditions but no FimH-CRD added are also prepared (protein-free). Compounds are serially diluted (12-point dose) in DMSO from 75 μM down to 0.4 nM. Compounds or DMSO are then added to each well (0.5 μl) to reach the final concentration of each drug (2.5% final DMSO concentration), in duplicate. Plates are then incubated for a minimum of five hours at room temperature in the dark. Plates are then read using the SpectaMax Paradigm Multi-Mode plate reader and the appropriate fluorescent polarization Detection cartridge (Alexa-647).
Alexa 647 mannoside probe is prepared using the similar procedure reported for FAM mannoside (Han, Z. et. al., 2010, J. Med. Chem., 53, 4779) and is described in the scheme below.
To a blue colored stirred solution of (2S,3S,4S,5S,6R)-2-(4-aminobutoxy)-6-(hydroxymethyl)tetrahydropyran-3,4,5-triol (2.21 mg, 0.009 mmol) and the (2E)-2-[(2E,4E)-5-[3,3-dimethyl-5-sulfonato-1-(3-sulfonatopropyl)indol-1-ium-2-yl]penta-2,4-dienylidene]-3-[6-(2,5-dioxopyrrolidin-1-yl)oxy-6-oxo-hexyl]-3-methyl-1-(3-sulfonatopropyl)indoline-5-sulfonate (Potassium Ion (3)) (4.9 mg, 0.0044 mmol) in DMF (44 μL) is added Et3N (5.4 mg, 7.0 μL, 0.053 mmol) at rt. The solution is stirred at room temperature over night, concentrated, dissolved in water and purified on 12 g C-18 silica gel cartridge on Isolera system using acetonitrile in water (0 to 40%, 10 CV) and followed by lyophilization to afford Alexa 647 mannoside probe (3.3 mg, 34%) as deep blue solid.
The Kd values of the compounds tested in duplicates are calculated with prism software (GraphPad Software, Inc, La Jolla, USA) with Alexa-647 probe and FimH-CRD.

FimH-CRD, sequence (P08191 22-177): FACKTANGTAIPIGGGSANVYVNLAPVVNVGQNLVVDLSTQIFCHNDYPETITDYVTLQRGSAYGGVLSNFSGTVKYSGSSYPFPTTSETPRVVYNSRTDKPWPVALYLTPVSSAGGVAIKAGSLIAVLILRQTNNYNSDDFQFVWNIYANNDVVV

Structure (SMILES)	Kd
Cc1nnc(-c2ccc(-c3ccc(O[C@H]4O[C@H](CO)[C@@H](O)[C@H](C[C@H]5O[C@H](CO)[C@@H](O)[C@H](O)[C@@H]5O)[C@@H]4O)cc3)cc2)o1 [Compound 7, (2R,3S,4R,5S,6R)-2-[[(2R,3S,4S,5S,6R)-3,5-Dihydroxy-2-(hydroxymethyl)-6-[4-[4-(5-methyl-1,3,4-oxadiazol-2-yl)phenyl]phenoxy]tetrahydropyran-4-yl]methyl]-6-(hydroxymethyl)tetrahydropyran-3,4,5-triol]	94 nM
CNC(=O)c1cccc(-c2ccc(O[C@H]3O[C@H](CO)[C@@H](O)[C@H](C[C@H]4O[C@H](CO)[C@@H](O)[C@H](O)[C@@H]4O)[C@@H]3O)c(C)c2)c1 [Compound 4, 3-[4-[(2R,3S,4S,5S,6R)-3,5-Dihydroxy-6-(hydroxymethyl)-4-[[(2R,3S,4R,5S,6R)-3,4,5-trihydroxy-6-(hydroxymethyl)tetrahydropyran-2-yl]methyl]tetrahydropyran-2-yl]oxy-3-methyl-phenyl]-N-methyl-benzamide]	51 nM
CO[C@H]1O[C@H](CO)[C@@H](O)[C@H](C(O)[C@H]2O[C@H](CO)[C@@H](O)[C@H](O)[C@@H]2O)[C@@H]1O (stereo partly drawn) [Compound 2, (2R,3S,4S,5S,6R)-2-[[(2R,3S,4R,5S,6S)-3,5-Dihydroxy-2-(hydroxymethyl)-6-methoxy-tetrahydropyran-4-yl]-hydroxy-methyl]-6-(hydroxymethyl)tetrahydropyran-3,4,5-triol]	124 nM
CNC(=O)c1cccc(-c2ccc(O[C@H]3O[C@H](CO)[C@@H](O)[C@H](C(O)[C@H]4O[C@H](CO)[C@@H](O)[C@H](O)[C@@H]4O)[C@@H]3O)cc2)c1 (stereo partly drawn) [Compound 1, 3-[4-[(2R,3S,4R,5S,6R)-3,5-Dihydroxy-6-(hydroxymethyl)-4-[hydroxy-[(2R,3S,4S,5S,6R)-3,4,5-trihydroxy-6-(hydroxymethyl)tetrahydropyran-2-yl]methyl]tetrahydropyran-2-yl]oxyphenyl]-N-methyl-benzamide]	29 nM
CNC(=O)Cc1cccc(-c2ccc(O[C@H]3O[C@H](CO)[C@@H](O)[C@H](C[C@H]4O[C@H](CO)[C@@H](O)[C@H](O)[C@@H]4O)[C@@H]3O)cc2)c1 [Compound 9, 2-[3-[4-[(2R,3S,4S,5S,6R)-3,5-Dihydroxy-6-(hydroxymethyl)-4-[[(2R,3S,4R,5S,6R)-3,4,5-trihydroxy-6-(hydroxymethyl)tetrahydropyran-2-yl]methyl]tetrahydropyran-2-yl]oxyphenyl]phenyl]-N-methyl-acetamide]	79 nM
CNC(=O)c1cc(C(=O)NC)cc(-c2ccc(O[C@H]3O[C@H](CO)[C@@H](O)[C@H](C[C@H]4O[C@H](CO)[C@@H](O)[C@H](O)[C@@H]4O)[C@@H]3O)cc2)c1 [Compound 8, 5-[4-[(2R,3S,4S,5S,6R)-3,5-Dihydroxy-6-(hydroxymethyl)-4-[[(2R,3S,4R,5S,6R)-3,4,5-trihydroxy-6-(hydroxymethyl)tetrahydropyran-2-yl]methyl]tetrahydropyran-2-yl]oxyphenyl]-N1,N3-dimethyl-benzene-1,3-dicarboxamide]	64 nM
OC[C@H]1O[C@H](C[C@@H]2[C@H](O)[C@@H](Oc3cccc(O)c3)O[C@H](CO)[C@H]2O)[C@@H](O)[C@@H](O)[C@@H]1O [Compound 6, (2R,3S,4R,5S,6R)-2-[[(2R,3S,4S,5S,6R)-3,5-Dihydroxy-2-(hydroxymethyl)-6-(3-hydroxyphenoxy)tetrahydropyran-4-yl]methyl]-6-(hydroxymethyl)tetrahydropyran-3,4,5-triol]	301 nM
CNC(=O)c1cccc(O[C@H]2O[C@H](CO)[C@@H](O)[C@H](C[C@H]3O[C@H](CO)[C@@H](O)[C@H](O)[C@@H]3O)[C@@H]2O)c1 [Compound 5, 3-[(2R,3S,4S,5S,6R)-3,5-Dihydroxy-6-(hydroxymethyl)-4-[[(2R,3S,4R,5S,6R)-3,4,5-trihydroxy-6-(hydroxymethyl)tetrahydropyran-2-yl]methyl]tetrahydropyran-2-yl]oxy-N-methyl-benzamide]	72 nM
CNC(=O)c1ccc(-c2ccc(C)c(O[C@H]3O[C@H](CO)[C@@H](O)[C@H](C[C@H]4O[C@H](CO)[C@@H](O)[C@H](O)[C@@H]4O)[C@@H]3O)c2)cc1 [Compound 15, 4-[3-[(2R,3S,4S,5S,6R)-3,5-Dihydroxy-6-(hydroxymethyl)-4-[[(2R,3S,4R,5S,6R)-3,4,5-trihydroxy-6-(hydroxymethyl)tetrahydropyran-2-yl]methyl]tetrahydropyran-2-yl]oxy-4-methyl-phenyl]-N-methyl-benzamide]	19 nM
CNC(=O)c1cc(C(=O)NC)cc(-c2cccc(O[C@H]3O[C@H](CO)[C@@H](O)[C@H](C[C@H]4O[C@H](CO)[C@@H](O)[C@H](O)[C@@H]4O)[C@@H]3O)c2)c1 [Compound 13, 5-[3-[(2R,3S,4S,5S,6R)-3,5-Dihydroxy-6-(hydroxymethyl)-4-[[(2R,3S,4R,5S,6R)-3,4,5-trihydroxy-6-(hydroxymethyl)tetrahydropyran-2-yl]methyl]tetrahydropyran-2-yl]oxyphenyl]-N1,N3-dimethyl-benzene-1,3-dicarboxamide]	48 nM
CNC(=O)c1cccc(-c2ccc(O[C@H]3O[C@H](CO)[C@@H](O)[C@H](C[C@H]4O[C@H](CO)[C@@H](O)[C@H](O)[C@@H]4O)[C@@H]3O)cc2)c1 [Compound 3, 3-[4-[(2R,3S,4S,5S,6R)-3,5-Dihydroxy-6-(hydroxymethyl)-4-[[(2R,3S,4R,5S,6R)-3,4,5-trihydroxy-6-(hydroxymethyl)tetrahydropyran-2-yl]methyl]tetrahydropyran-2-yl]oxyphenyl]-N-methyl-benzamide]	66 nM
O=C1NCC(c2ccc(O[C@H]3O[C@H](CO)[C@@H](O)[C@H](C[C@H]4O[C@H](CO)[C@@H](O)[C@H](O)[C@@H]4O)[C@@H]3O)cc2)=C(O)N1 [Compound 12, 5-[4-[(2R,3S,4S,5S,6R)-3,5-Dihydroxy-6-(hydroxymethyl)-4-[[(2R,3S,4R,5S,6R)-3,4,5-trihydroxy-6-(hydroxymethyl)tetrahydropyran-2-yl]methyl]tetrahydropyran-2-yl]oxyphenyl]-6-hydroxy-3,4-dihydro-1H-pyrimidin-2-one]	111 nM
CNC(=O)Cc1cccc(-c2cccc(O[C@H]3O[C@H](CO)[C@@H](O)[C@H](C[C@H]4O[C@H](CO)[C@@H](O)[C@H](O)[C@@H]4O)[C@@H]3O)c2)c1 [Compound 10, 2-[3-[3-[(2R,3S,4S,5S,6R)-3,5-Dihydroxy-6-(hydroxymethyl)-4-[[(2R,3S,4R,5S,6R)-3,4,5-trihydroxy-6-(hydroxymethyl)tetrahydropyran-2-yl]methyl]tetrahydropyran-2-yl]oxyphenyl]phenyl]-N-methyl-acetamide]	50 nM
O=c1[nH]cc(-c2ccc(O[C@H]3O[C@H](CO)[C@@H](O)[C@H](C[C@H]4O[C@H](CO)[C@@H](O)[C@H](O)[C@@H]4O)[C@@H]3O)cc2)c(=O)[nH]1 [Compound 11, 5-[4-[(2R,3S,4S,5S,6R)-3,5-Dihydroxy-6-(hydroxymethyl)-4-[[(2R,3S,4R,5S,6R)-3,4,5-trihydroxy-6-(hydroxymethyl)tetrahydropyran-2-yl]methyl]tetrahydropyran-2-yl]oxyphenyl]-1H-pyrimidine-2,4-dione]	97 nM
